Experimental data reported in patent US11596692B1 (Incyte Corporation, priority 2018, dated 2023).
Where two headings read alike, the source gives them in different places.

Test system: IRF3
Assay: IRF3 activation assay in THP-1 Dual cells
Type: cell-based
Conditions: Homo sapiens, read-out: THP1 IRF3 EC50
Method: THP-1 Dual Cells (Invivogen) were maintained in RPMI1640 medium with addition of 10% FBS, 100 μg/ml zeocin, 10 μg/ml blasticidin. Cells were added in a 96-well flat bottom assay plate at 100,000 per well in 100 μL complete RPMI medium. Test compounds were prepared by serial dilution in complete RPMI medium and 100 μL test compounds were transferred to each corresponding well. The assay plate was incubated at 37° C., 5% CO2 for 24 hours. After the overnight incubation, 20 μL of the culture supernatants were collected, followed by addition of 180 μL of QUANTI-Blue (Invivogen) to assess IRF3 activity. The amount of IRF3 activation was assessed by reading the absorbance at 620-655 nm with a microplate reader 2 hours later. The culture supernatant from the untreated THP-1 cells was used as the negative control. EC50 determination was performed by fitting the curve of percent control activity versus the log of the compound concentration using the GraphPad Prism 6.0 software.

CCn1nc(C)cc1C(=O)Nc1nc2cc(C(N)=O)cc(OCCCOC(=O)c3cc(C)nn3CC)c2n1C/C=C/Cn1c2nc(-c3cc(C)nn3CC)ncc2c2cc(C(N)=O)cc(OC)c21 [Example S15, (E)-3-((5-carbamoyl-1-(4-(6-carbamoyl-2-(1-ethyl-3-methyl-1H-pyrazol-5-yl)-8-methoxy-9H-pyrimido[4,5-b]indol-9-yl)but-2-en-1-yl)-2-(1-ethyl-3-methyl-1H-pyrazole-5-carboxamido)-1H-benzo[d]imidazol-7-yl)oxy)propyl 1-ethyl-3-methyl-1H-pyrazole-5-carboxylate]
EC50 (THP-1, Table 4A): ≤ 100 nM | EC50 (THP-1, Table 4B): < 200 nM | EC50 (THP-1, Table 4C): ≤ 50 nM

CCn1nc(C)cc1C(=O)Nc1nc2cc(C(N)=O)cc(OCCCO)c2n1C/C=C/Cn1c2nc(-c3cc(C)nn3CC)ncc2c2cc(C(N)=O)cc(OC)c21 [Example S16, (E)-9-(4-(5-carbamoyl-2-(1-ethyl-3-methyl-1H-pyrazole-5-carboxamido)-7-(3-hydroxypropoxy)-1H-benzo[d]imidazol-1-yl)but-2-en-1-yl)-2-(1-ethyl-3-methyl-1H-pyrazol-5-yl)-8-methoxy-9H-pyrimido[4,5-b]indole-6-carboxamide]
EC50 (THP-1, Table 4A): ≤ 100 nM | EC50 (THP-1, Table 4B): < 200 nM | EC50 (THP-1, Table 4C): ≤ 50 nM

CCn1nc(C)cc1C(=O)Nc1nc2cc(C(N)=O)cc(OCCCOC(=O)c3cc(C)nn3CC)c2n1C/C=C/Cn1c2ccc(C(N)=O)cc2c2cnc(-c3cc(C)nn3CC)nc21 [Example S17, (E)-3-((5-carbamoyl-1-(4-(6-carbamoyl-2-(1-ethyl-3-methyl-1H-pyrazol-5-yl)-9H-pyrimido[4,5-b]indol-9-yl)but-2-en-1-yl)-2-(1-ethyl-3-methyl-1H-pyrazole-5-carboxamido)-1H-benzo[d]imidazol-7-yl)oxy)propyl 1-ethyl-3-methyl-1H-pyrazole-5-carboxylate]
EC50 (THP-1, Table 4A): ≤ 100 nM | EC50 (THP-1, Table 4B): < 200 nM | EC50 (THP-1, Table 4C): ≤ 50 nM

CCn1nc(C)cc1C(=O)Nc1nc2cc(C(N)=O)cc(OCCCO)c2n1C/C=C/Cn1c2ccc(C(N)=O)cc2c2cnc(-c3cc(C)nn3CC)nc21 [Example S18, (E)-9-(4-(5-carbamoyl-2-(1-ethyl-3-methyl-1H-pyrazole-5-carboxamido)-7-(3-hydroxypropoxy)-1H-benzo[d]imidazol-1-yl)but-2-en-1-yl)-2-(1-ethyl-3-methyl-1H-pyrazol-5-yl)-9H-pyrimido[4,5-b]indole-6-carboxamide]
EC50 (THP-1, Table 4A): ≤ 100 nM | EC50 (THP-1, Table 4B): < 200 nM | EC50 (THP-1, Table 4C): ≤ 50 nM

CCn1nc(C)cc1C(=O)Nc1nc2cc(C(N)=O)cc(OCCCOC(=O)c3cc(C)nn3CC)c2n1C/C=C/Cn1c2nc(-c3cc(C)nn3CC)ncc2c2cc(C(N)=O)cc(OCCCN3CCOCC3)c21 [Example S19, (E)-3-((5-carbamoyl-1-(4-(6-carbamoyl-2-(1-ethyl-3-methyl-1H-pyrazol-5-yl)-8-(3-morpholinopropoxy)-9H-pyrimido[4,5-b]indol-9-yl)but-2-en-1-yl)-2-(1-ethyl-3-methyl-1H-pyrazole-5-carboxamido)-1H-benzo[d]imidazol-7-yl)oxy)propyl 1-ethyl-3-methyl-1H-pyrazole-5-carboxylate]
EC50 (THP-1, Table 4A): ≤ 100 nM | EC50 (THP-1, Table 4B): < 200 nM | EC50 (THP-1, Table 4C): ≤ 50 nM

CCn1nc(C)cc1C(=O)Nc1nc2cc(C(N)=O)cc(OCCCO)c2n1C/C=C/Cn1c2nc(-c3cc(C)nn3CC)ncc2c2cc(C(N)=O)cc(OCCCN3CCOCC3)c21 [Example S20, (E)-9-(4-(5-carbamoyl-2-(1-ethyl-3-methyl-1H-pyrazole-5-carboxamido)-7-(3-hydroxypropoxy)-1H-benzo[d]imidazol-1-yl)but-2-en-1-yl)-2-(1-ethyl-3-methyl-1H-pyrazol-5-yl)-8-(3-morpholinopropoxy)-9H-pyrimido[4,5-b]indole-6-carboxamide]
EC50 (THP-1, Table 4A): ≤ 100 nM | EC50 (THP-1, Table 4B): < 200 nM | EC50 (THP-1, Table 4C): ≤ 50 nM
